Paper PMC11357990, “A first-in-class selective inhibitor of EGFR and PI3K offers a single-molecule approach to targeting adaptive resistance” (Nature Cancer, 2024)

Legend:
[1] = molecular target: T1, PI3Kδ (Homo sapiens, UniProt O00329); assay: biochemical kinase assay at ATP Km apparent
T1 construct: gene PIK3CD

[2] = molecular target: T2, cathepsin G (h) (Homo sapiens, UniProt P08311); design: Eurofins SafetyScreen 87 enzyme part: inhibition of control enzyme activity, single concentration; conditions: mean of 2, 10 µM, inhibitor
T2 construct: gene CTSG

[3] = molecular target: ACE (h) (Homo sapiens, UniProt P12821); design: Eurofins SafetyScreen 87 enzyme part: inhibition of control enzyme activity, single concentration; conditions: mean of 2, 10 µM, inhibitor
[4] = molecular target: T3, MAO-B (h) recombinant enzyme (Homo sapiens, UniProt P27338); design: Eurofins SafetyScreen 87 enzyme part: inhibition of control enzyme activity, single concentration; conditions: mean of 2, 10 µM, inhibitor
T3 construct: gene MAOB; recombinant enzyme
T3 sequence (P27338 whole entry): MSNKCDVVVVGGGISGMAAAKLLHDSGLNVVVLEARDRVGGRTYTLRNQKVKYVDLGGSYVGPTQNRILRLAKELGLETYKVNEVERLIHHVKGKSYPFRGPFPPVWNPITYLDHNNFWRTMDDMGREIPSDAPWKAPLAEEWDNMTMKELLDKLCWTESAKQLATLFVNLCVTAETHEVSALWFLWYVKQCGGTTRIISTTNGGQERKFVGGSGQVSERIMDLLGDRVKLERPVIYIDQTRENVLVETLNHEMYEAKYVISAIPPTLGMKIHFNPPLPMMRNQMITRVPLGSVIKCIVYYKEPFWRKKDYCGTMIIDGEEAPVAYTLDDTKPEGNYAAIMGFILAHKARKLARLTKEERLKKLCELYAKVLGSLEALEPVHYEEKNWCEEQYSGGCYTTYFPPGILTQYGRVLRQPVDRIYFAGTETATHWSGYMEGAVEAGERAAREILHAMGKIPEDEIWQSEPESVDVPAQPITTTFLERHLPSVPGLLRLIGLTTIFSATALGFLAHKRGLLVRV

[5] = molecular target: T4, PDE4D2 (h) (Homo sapiens, UniProt Q08499); design: Eurofins SafetyScreen 87 enzyme part: inhibition of control enzyme activity, single concentration; conditions: mean of 2, 10 µM, inhibitor
T4 construct: gene PDE4D; isoform PDE4D2

[6] = molecular target: PDE3A (h) (Homo sapiens, UniProt Q14432); design: Eurofins SafetyScreen 87 enzyme part: inhibition of control enzyme activity, single concentration; conditions: mean of 2, 10 µM, inhibitor
[7] = molecular target: T5, COX2(h) (Homo sapiens, UniProt P35354); design: Eurofins SafetyScreen 87 enzyme part: inhibition of control enzyme activity, single concentration; conditions: mean of 2, 10 µM, inhibitor
T5 construct: gene PTGS2

[8] = molecular target: Lck kinase (h) (Homo sapiens, UniProt P06239); design: Eurofins SafetyScreen 87 enzyme part: inhibition of control enzyme activity, single concentration; conditions: mean of 2, 10 µM, inhibitor
[9] = molecular target: IRK (h) (InsR) (Homo sapiens, UniProt P06213); design: Eurofins SafetyScreen 87 enzyme part: inhibition of control enzyme activity, single concentration; conditions: mean of 2, 10 µM, inhibitor
[10] = molecular target: T6, COX1(h) (Homo sapiens, UniProt P23219); design: Eurofins SafetyScreen 87 enzyme part: inhibition of control enzyme activity, single concentration; conditions: mean of 2, 10 µM, inhibitor
T6 construct: gene PTGS1

[11] = molecular target: T7, PKCalpha (h) (Homo sapiens, UniProt P17252); design: Eurofins SafetyScreen 87 enzyme part: inhibition of control enzyme activity, single concentration; conditions: mean of 2, 10 µM, inhibitor
T7 construct: gene PRKCA

[12] = molecular target: T8, Potassium Channel hERG (human)- [3H] Dofetilide (Homo sapiens, UniProt Q12809); assay: in vitro
T8 construct: gene KCNH2

[13] = molecular target: T9, PPARγ (Homo sapiens, UniProt P37231); assay: X-ray cocrystal structure ([…] Å); TR-FRET competitive binding
T9 construct: gene PPARG; L232-Y505 of UniProt entry P37231-2

[14] = molecular target: T10, CB1 (h) (agonist radioligand) (Homo sapiens, UniProt P21554); assay: biochemical; conditions: read-out: Binding / ================================================= / % Inhibition of Control Specific Binding
T10 construct: gene CNR1

[15] = molecular target: T11, N neuronal alpha 4beta 2 (h) (agonist radioligand) (Homo sapiens, UniProt P17787+P43681); assay: biochemical; conditions: read-out: Binding / ================================================= / % Inhibition of Control Specific Binding
T11 construct: gene CHRNB2

[16] = molecular target: T12, MC1 (agonist radioligand) (Mus musculus, UniProt Q01727); assay: biochemical; conditions: read-out: Binding / ================================================= / % Inhibition of Control Specific Binding
T12 construct: gene Mc1r
T12 sequence (Q01727 whole entry): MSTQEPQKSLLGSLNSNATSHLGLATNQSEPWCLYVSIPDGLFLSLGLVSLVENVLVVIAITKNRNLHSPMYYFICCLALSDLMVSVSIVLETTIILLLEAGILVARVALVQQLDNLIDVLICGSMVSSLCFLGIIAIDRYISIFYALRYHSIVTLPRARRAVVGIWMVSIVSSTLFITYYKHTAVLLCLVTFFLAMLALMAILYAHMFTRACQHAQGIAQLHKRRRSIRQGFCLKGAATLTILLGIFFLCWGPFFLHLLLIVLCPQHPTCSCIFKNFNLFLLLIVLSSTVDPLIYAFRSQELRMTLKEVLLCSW

[17] = molecular target: T13, AT1 (h) (antagonist radioligand) (Homo sapiens, UniProt P30556); assay: biochemical; conditions: read-out: Binding / ================================================= / % Inhibition of Control Specific Binding
T13 construct: gene AGTR1
T13 sequence (P30556 whole entry): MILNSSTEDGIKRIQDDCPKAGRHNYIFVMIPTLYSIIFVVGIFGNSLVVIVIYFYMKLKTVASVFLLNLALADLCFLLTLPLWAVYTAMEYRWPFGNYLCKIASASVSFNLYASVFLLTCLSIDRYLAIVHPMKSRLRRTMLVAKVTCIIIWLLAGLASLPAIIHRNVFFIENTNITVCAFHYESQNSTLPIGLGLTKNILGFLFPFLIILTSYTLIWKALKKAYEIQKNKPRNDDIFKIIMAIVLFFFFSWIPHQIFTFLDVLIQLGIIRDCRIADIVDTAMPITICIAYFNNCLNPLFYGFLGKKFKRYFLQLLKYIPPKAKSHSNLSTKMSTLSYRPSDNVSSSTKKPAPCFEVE

[18] = molecular target: T14, alpha 2B (h) (antagonist radioligand) (Homo sapiens, UniProt P18089); assay: biochemical; conditions: read-out: Binding / ================================================= / % Inhibition of Control Specific Binding
T14 construct: gene ADRA2B
T14 sequence (P18089 whole entry): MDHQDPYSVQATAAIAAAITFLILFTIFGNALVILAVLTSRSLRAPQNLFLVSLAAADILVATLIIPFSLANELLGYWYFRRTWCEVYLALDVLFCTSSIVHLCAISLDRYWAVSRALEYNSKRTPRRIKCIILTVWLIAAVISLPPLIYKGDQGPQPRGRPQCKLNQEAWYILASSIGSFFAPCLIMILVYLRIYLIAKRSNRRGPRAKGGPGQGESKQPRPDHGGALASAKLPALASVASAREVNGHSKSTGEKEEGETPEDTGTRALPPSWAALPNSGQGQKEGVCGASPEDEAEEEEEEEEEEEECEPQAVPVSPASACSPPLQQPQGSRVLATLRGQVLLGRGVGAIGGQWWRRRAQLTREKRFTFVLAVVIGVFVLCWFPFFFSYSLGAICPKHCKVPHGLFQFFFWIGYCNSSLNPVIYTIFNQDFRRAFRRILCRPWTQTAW

[19] = molecular target: T15, M4 (h) (antagonist radioligand) (Homo sapiens, UniProt P08173); assay: biochemical; conditions: read-out: Binding / ================================================= / % Inhibition of Control Specific Binding
T15 construct: gene CHRM4
T15 sequence (P08173 whole entry): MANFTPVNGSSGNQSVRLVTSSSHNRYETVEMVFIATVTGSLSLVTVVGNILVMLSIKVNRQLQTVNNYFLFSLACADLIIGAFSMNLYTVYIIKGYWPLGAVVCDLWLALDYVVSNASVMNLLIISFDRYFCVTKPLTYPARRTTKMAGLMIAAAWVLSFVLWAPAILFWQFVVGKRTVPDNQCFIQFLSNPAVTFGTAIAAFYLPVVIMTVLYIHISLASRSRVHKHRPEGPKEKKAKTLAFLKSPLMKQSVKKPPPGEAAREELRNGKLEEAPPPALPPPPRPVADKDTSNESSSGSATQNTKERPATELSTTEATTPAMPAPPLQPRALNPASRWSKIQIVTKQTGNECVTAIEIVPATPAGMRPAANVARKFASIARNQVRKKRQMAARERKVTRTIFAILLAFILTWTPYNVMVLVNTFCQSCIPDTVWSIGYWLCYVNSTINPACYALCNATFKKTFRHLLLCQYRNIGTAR

[20] = molecular target: T16, kappa (h) (KOP) (agonist radioligand) (Homo sapiens, UniProt P41145); assay: biochemical; conditions: read-out: Binding / ================================================= / % Inhibition of Control Specific Binding
T16 construct: gene OPRK1

[21] = molecular target: T17, PPARgamma h) (agonist radioligand) (Homo sapiens, UniProt P37231); assay: biochemical; conditions: read-out: Binding / ================================================= / % Inhibition of Control Specific Binding
T17 construct: gene PPARG
T17 sequence (P37231 whole entry): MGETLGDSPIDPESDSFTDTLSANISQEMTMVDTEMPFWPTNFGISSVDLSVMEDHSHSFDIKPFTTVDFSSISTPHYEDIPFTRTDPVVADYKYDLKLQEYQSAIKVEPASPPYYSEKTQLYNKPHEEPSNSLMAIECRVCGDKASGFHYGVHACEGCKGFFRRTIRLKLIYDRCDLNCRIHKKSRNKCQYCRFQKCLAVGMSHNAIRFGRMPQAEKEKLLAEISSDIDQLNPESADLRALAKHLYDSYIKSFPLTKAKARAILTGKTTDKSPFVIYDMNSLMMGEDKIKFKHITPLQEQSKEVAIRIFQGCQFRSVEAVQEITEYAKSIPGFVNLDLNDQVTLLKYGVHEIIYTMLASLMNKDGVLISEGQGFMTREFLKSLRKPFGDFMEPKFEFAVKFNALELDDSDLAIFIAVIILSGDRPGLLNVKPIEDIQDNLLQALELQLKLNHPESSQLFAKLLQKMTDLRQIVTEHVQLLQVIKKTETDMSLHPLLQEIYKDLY

[22] = molecular target: T18, PAF (h) (agonist radioligand) (Homo sapiens, UniProt P25105); assay: biochemical; conditions: read-out: Binding / ================================================= / % Inhibition of Control Specific Binding
T18 construct: gene PTAFR
T18 sequence (P25105 whole entry): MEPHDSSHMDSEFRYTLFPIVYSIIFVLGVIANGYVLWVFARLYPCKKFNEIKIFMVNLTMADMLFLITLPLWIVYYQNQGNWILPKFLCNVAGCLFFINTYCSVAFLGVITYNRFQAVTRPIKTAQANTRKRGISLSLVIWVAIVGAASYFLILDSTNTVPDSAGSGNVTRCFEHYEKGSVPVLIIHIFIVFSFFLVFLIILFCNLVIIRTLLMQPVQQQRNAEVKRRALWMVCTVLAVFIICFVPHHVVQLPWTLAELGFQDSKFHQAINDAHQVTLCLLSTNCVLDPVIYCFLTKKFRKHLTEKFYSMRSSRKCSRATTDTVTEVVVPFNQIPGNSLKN

[23] = molecular target: T19, dopamine transporter (h) (antagonist radioligand) (Homo sapiens, UniProt Q01959); assay: biochemical; conditions: read-out: Binding / ================================================= / % Inhibition of Control Specific Binding
T19 construct: gene SLC6A3

[24] = molecular target: T20, 5-HT1A (h) (agonist radioligand) (Homo sapiens, UniProt P08908); assay: biochemical; conditions: read-out: Binding / ================================================= / % Inhibition of Control Specific Binding
T20 construct: gene HTR1A

[25] = molecular target: T21, 5-HT2C (h) (antagonist radioligand) (Homo sapiens, UniProt P28335); assay: biochemical; conditions: read-out: Binding / ================================================= / % Inhibition of Control Specific Binding
T21 construct: gene HTR2C
T21 sequence (P28335 whole entry): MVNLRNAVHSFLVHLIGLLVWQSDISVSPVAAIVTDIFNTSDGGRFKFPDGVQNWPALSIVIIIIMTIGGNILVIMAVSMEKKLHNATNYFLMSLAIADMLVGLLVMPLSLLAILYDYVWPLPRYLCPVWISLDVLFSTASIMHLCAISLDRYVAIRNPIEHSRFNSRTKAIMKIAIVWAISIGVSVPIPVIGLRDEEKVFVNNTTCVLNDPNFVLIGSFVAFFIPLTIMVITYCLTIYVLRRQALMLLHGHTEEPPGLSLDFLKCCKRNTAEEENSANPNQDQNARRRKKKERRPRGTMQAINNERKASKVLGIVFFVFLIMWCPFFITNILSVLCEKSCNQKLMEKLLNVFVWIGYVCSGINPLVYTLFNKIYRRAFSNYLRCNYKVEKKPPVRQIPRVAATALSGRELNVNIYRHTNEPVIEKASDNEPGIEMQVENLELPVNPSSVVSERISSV

[26] = molecular target: T22, M1 (h) (antagonist radioligand) (Homo sapiens, UniProt P11229); assay: biochemical; conditions: read-out: Binding / ================================================= / % Inhibition of Control Specific Binding
T22 construct: gene CHRM1
T22 sequence (P11229 whole entry): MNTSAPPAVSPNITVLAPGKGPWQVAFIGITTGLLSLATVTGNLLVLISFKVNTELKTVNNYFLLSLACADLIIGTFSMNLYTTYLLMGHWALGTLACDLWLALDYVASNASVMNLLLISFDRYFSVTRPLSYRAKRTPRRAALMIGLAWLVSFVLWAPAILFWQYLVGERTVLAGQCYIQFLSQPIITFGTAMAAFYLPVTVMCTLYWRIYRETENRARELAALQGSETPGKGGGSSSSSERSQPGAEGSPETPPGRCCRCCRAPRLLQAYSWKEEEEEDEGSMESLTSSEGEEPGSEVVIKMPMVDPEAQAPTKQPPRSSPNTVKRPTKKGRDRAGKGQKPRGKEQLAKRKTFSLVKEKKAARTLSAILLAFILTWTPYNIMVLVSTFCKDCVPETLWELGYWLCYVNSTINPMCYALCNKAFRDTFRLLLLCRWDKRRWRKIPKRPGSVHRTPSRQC

[27] = molecular target: T23, 5-HT1B (h) (antagonist radioligand) (Homo sapiens, UniProt P28222); assay: biochemical; conditions: read-out: Binding / ================================================= / % Inhibition of Control Specific Binding
T23 construct: gene HTR1B
T23 sequence (P28222 whole entry): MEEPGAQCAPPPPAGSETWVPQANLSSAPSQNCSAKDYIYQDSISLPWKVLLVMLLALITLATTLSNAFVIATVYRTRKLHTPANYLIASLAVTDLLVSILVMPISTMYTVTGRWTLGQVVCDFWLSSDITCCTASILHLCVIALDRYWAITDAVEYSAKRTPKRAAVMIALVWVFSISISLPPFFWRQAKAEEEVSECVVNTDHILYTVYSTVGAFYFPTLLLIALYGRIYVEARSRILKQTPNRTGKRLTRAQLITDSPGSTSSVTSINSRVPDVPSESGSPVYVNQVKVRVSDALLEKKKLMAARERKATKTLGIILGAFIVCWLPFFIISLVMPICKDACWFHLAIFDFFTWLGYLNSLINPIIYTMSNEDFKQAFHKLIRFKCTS

[28] = molecular target: T24, 5-HT2A (h) (agonist radioligand) (Homo sapiens, UniProt P28223); assay: biochemical; design: Eurofins SafetyScreen 87 binding part: inhibition of control specific ligand binding, single concentration; conditions: read-out: Binding / ================================================= / % Inhibition of Control Specific Binding
T24 construct: gene HTR2A

In the case of `C[C@@H](Nc1ncnc2ccc(-c3cnc(Cl)c(NS(C)(=O)=O)c3)cc12)c1ccccc1` [MTX-531, (R)-N-(2-chloro-5-(4-((1-phenylethyl)amino)quinazolin-6-yl)pyridin-3-yl)methane-sulfonamide], the IC50 [1] is reported as 0.0011 µM, the “% inhibition of control enzyme activity” value [2] is reported as 26% and the “% inhibition of control enzyme activity” value [3] is reported as -2%. For the same compound, the “% inhibition of control enzyme activity” value [4] was 10%, the “% inhibition of control enzyme activity” value [5] was 88% and the “% inhibition of control enzyme activity” value [6] was 29%. The “% inhibition of control enzyme activity” value [7] was -3%, the “% inhibition of control enzyme activity” value [8] was 4% and the “% inhibition of control enzyme activity” value [9] was 0%. The “% inhibition of control enzyme activity” value [10] was -4%, the “% inhibition of control enzyme activity” value [11] was -3% and the inhibition at 10 µM [12] was 51%. For the same compound, the IC50 [13] was 2.5 µM, the inhibition at 10 µM [14] was -2% and the inhibition at 10 µM [15] was -8%. The inhibition at 10 µM [16] was 2%, the inhibition at 10 µM [17] was 4% and the inhibition at 10 µM [18] was 2%. The inhibition at 10 µM [19] was 5%, the inhibition at 10 µM [20] was 7% and the inhibition at 10 µM [21] was 48%. For the same compound, the inhibition at 10 µM [22] was 1%, the inhibition at 10 µM [23] was 12% and the inhibition at 10 µM [24] was 6%. It also gave an inhibition at 10 µM [25] of 4%, an inhibition at 10 µM [26] of 22% and an inhibition at 10 µM [27] of -21%. For the same compound, the inhibition at 10 µM [28] was -5%.
